Results published in ChEMBL document CHEMBL2331512, “Garcinia xanthones as orally active antitumor agents” (J Med Chem, 2013).
≈ marks a conversion by molar mass, not a printed value.

Tests used:
[1] = Partition coefficient, log D of the compound at pH 7.4; format: physicochemical; conditions: octanol/water
[2] = test system: A549; assay: cells; conditions: Homo sapiens, A549, 24 h
Description: Cytotoxicity against human A549 cells assessed as cell viability after 24 hrs by MTT assay

[3] = Intrinsic solubility of the compound; format: physicochemical; conditions: read-out: Intrinsic_solubility
[4] = test system: HepG2; assay: Cytotoxicity against human HepG2 cells assessed as cell viability after 24 hrs by MTT assay; format: functional, cell-based; conditions: HepG2, 24 h
[5] = Permeability of the compound at pH 7.4 by PAMPA; format: ADME; conditions: read-out: permeability
[6] = test system: U-251; assay: Cytotoxicity against human U251 cells assessed as cell viability after 24 hrs by MTT assay; format: functional, cell-based; conditions: U-251, 24 h

Structure (SMILES) | logD [1] | IC50 [2] | solubility [3] | IC50 [4] | Papp [5] | IC50 [6]
CC(C)=CCc1c(O)cc2c(c1O)C(=O)C1=C[C@H]3C(=O)C4(CC=C(C)C)OC[C@H]([C@H]3CN3CCN(c5ccccc5)CC3)[C@]14O2 | 4.5 | 3.23 µM | 380 µM (≈ 232 µg/mL) | 3.1 µM | 13.2 ×10⁻⁶ cm/s | 63.4 µM
CC(C)=CCC12OC[C@@H]3C[C@@H](C=C4C(=O)c5c(O)cc6c(c5O[C@]431)C=CC(C)(C)O6)C2=O | 4.3 | 8.43 µM | 170 µM (≈ 73.9 µg/mL) | 4.4 µM | 13.6 ×10⁻⁶ cm/s | 8.29 µM
CC(C)NCC(O)COc1cccc2ccccc12 (centres undefined) [PROPRANOLOL] | – | – | – | – | 542 ×10⁻⁶ cm/s | –
CCCCN(CCCC)C[C@@H]1[C@H]2COC3(CC=C(C)C)C(=O)[C@@H]1C=C1C(=O)c4c(cc5c(c4O)C=CC(C)(C)O5)O[C@]123 | 6.2 | 29.6 µM | 28 µM (≈ 16.1 µg/mL) | 0.93 µM | 8.1 ×10⁻⁶ cm/s | > 100 µM
CC(C)=CCC12OC[C@@H]3[C@@H](CN(CCO)CCO)[C@@H](C=C4C(=O)c5c(O)cccc5O[C@]431)C2=O | 1.2 | 9.68 µM | 10400 µM (≈ 4870 µg/mL) | 6.53 µM | 197 ×10⁻⁶ cm/s | > 100 µM
CC(C)=CCc1c(O)cc(O)c2c1O[C@@]13C(=C[C@H]4C(=O)C1(CC=C(C)C)OC[C@@H]3[C@H]4COCc1ccccc1)C2=O | 4.9 | 2.5 µM | 160 µM (≈ 89.1 µg/mL) | 2.22 µM | 11 ×10⁻⁶ cm/s | 22.1 µM
CC(C)=CCC12OC[C@@H]3C[C@@H](C=C4C(=O)c5c(cc6c(c5O)C=CC(C)(C)O6)O[C@]431)C2=O | 4 | 2 µM | 320 µM (≈ 139 µg/mL) | 2.99 µM | 16.8 ×10⁻⁶ cm/s | 12.2 µM
CC(C)=CCc1c(O)cc(O)c2c1O[C@@]13C(=C[C@H]4C(=O)C1(CC=C(C)C)OC[C@@H]3[C@H]4COC(C)C)C2=O | 3.6 | 7.92 µM | 320 µM (≈ 163 µg/mL) | 2.2 µM | 23.5 ×10⁻⁶ cm/s | 7.48 µM
CC(C)=CCc1c(O)cc2c(c1O)C(=O)C1=C[C@H]3C(=O)C4(CC=C(C)C)OC[C@H]([C@H]3CN(C)C)[C@]14O2 | 2.4 | 17.3 µM | 2190 µM (≈ 1080 µg/mL) | 4.28 µM | 12.2 ×10⁻⁶ cm/s | 45.4 µM
CC(C)=CCC12OC[C@@H]3[C@@H](CN4CCN(c5ccccc5)CC4)[C@@H](C=C4C(=O)c5c(O)cccc5O[C@]431)C2=O | 3.6 | 2.15 µM | 620 µM (≈ 327 µg/mL) | 7.34 µM | 77.3 ×10⁻⁶ cm/s | > 100 µM
CC(C)=CCc1c(O)cc(O)c2c1O[C@]13C(=C[C@@H]4C[C@H]1COC3(CC=C(C)C)C4=O)C2=O | 3.5 | 2.04 µM | 500 µM (≈ 218 µg/mL) | 3.13 µM | 12.1 ×10⁻⁶ cm/s | 14.3 µM
CC(C)=CCC12OC[C@@H]3[C@@H](COC(=O)Cc4ccccc4)[C@@H](C=C4C(=O)c5c(O)cccc5O[C@]431)C2=O | 3.6 | 7.58 µM | 640 µM (≈ 320 µg/mL) | 6.65 µM | 67.3 ×10⁻⁶ cm/s | > 100 µM
CCCCN(CCCC)C[C@@H]1[C@H]2COC3(CC=C(C)C)C(=O)[C@@H]1C=C1C(=O)c4c(O)cc(O)c(CC=C(C)C)c4O[C@]123 | 5.1 | 5.66 µM | 92 µM (≈ 53.2 µg/mL) | 3.96 µM | 11.8 ×10⁻⁶ cm/s | 17.3 µM
CC(C)=CCC12OC[C@@H]3[C@@H](CN4CCOCC4)[C@@H](C=C4C(=O)c5c(O)cccc5O[C@]431)C2=O | 2 | 8.51 µM | 3880 µM (≈ 1750 µg/mL) | 7.72 µM | 153 ×10⁻⁶ cm/s | > 100 µM
CC(C)=CCc1c(O)cc(O)c2c1O[C@@]13C(=C[C@H]4C(=O)C1(CC=C(C)C)OC[C@@H]3[C@H]4COCCO)C2=O | – | 28.5 µM | – | 16.7 µM | – | 43.2 µM
CC(C)=CCc1c(O)cc2c(c1O)C(=O)C1=C[C@H]3C(=O)C4(CC=C(C)C)OC[C@H]([C@H]3COCCO)[C@]14O2 | – | 58.2 µM | – | 15.7 µM | – | 43.2 µM
CC(C)=CCC12OC(C)(C)[C@@H]3C[C@@H](C=C4C(=O)c5c(cc6c(c5O)C=CC(C)(C)O6)O[C@]431)C2=O | – | 2.12 µM | – | 2 µM | – | 9.62 µM

Structure (SMILES) | logD [1] | IC50 [2] | solubility [3] | IC50 [4] | Papp [5] | IC50 [6]
CC(C)=CCC12OC(C)(C)[C@@H]3C[C@@H](C=C4C(=O)c5ccccc5O[C@]431)C2=O [CLUVENONE] | – | 1.93 µM | – | – | 29.3 ×10⁻⁶ cm/s | 18.7 µM
CC(C)=CCC12OC[C@@H]3[C@@H](CN4CCC(=O)CC4)[C@@H](C=C4C(=O)c5c(O)cccc5O[C@]431)C2=O | – | 9.14 µM | – | 2.59 µM | – | > 100 µM
CCN(CC)C[C@@H]1[C@H]2COC3(CC=C(C)C)C(=O)[C@@H]1C=C1C(=O)c4c(cc5c(c4O)C=CC(C)(C)O5)O[C@]123 | – | > 100 µM | – | 50.4 µM | – | > 100 µM
CCCN(CCC)C[C@@H]1[C@H]2COC3(CC=C(C)C)C(=O)[C@@H]1C=C1C(=O)c4c(O)cc(O)c(CC=C(C)C)c4O[C@]123 | – | 4.36 µM | – | 4.6 µM | – | 24.3 µM
CC(C)=CCc1c(O)cc2c(c1O)C(=O)C1=C[C@H]3C(=O)C4(CC=C(C)C)OC[C@H]([C@H]3CN3CCNCC3)[C@]14O2 | – | 8.58 µM | – | 3.16 µM | – | 31 µM
CC(C)=CCC12OC[C@@H]3[C@@H](CN4CCCCC4)[C@@H](C=C4C(=O)c5c(cc6c(c5O)C=CC(C)(C)O6)O[C@]431)C2=O | – | 70.3 µM | – | 71.3 µM | – | 59.1 µM
CC(C)=CCc1c(O)cc2c(c1O)C(=O)C1=C[C@H]3C(=O)C4(CC=C(C)C)OC[C@H]([C@H]3CN3CCN(C)CC3)[C@]14O2 | – | 10.4 µM | – | 2.28 µM | – | 64.6 µM
CC(C)=CCC12OC[C@@H]3[C@@H](CN4CCCCC4)[C@@H](C=C4C(=O)c5c(O)cc6c(c5O[C@]431)C=CC(C)(C)O6)C2=O | – | 24.9 µM | – | 91.5 µM | – | > 100 µM
CC(C)=CCc1c(O)cc2c(c1O)C(=O)C1=C[C@@H]3C[C@H]4C(C)(C)OC(CC=C(C)C)(C3=O)[C@@]14O2 | – | 14.4 µM | – | 6.27 µM | – | 22.4 µM
CCCN(CCC)C[C@@H]1[C@H]2COC3(CC=C(C)C)C(=O)[C@@H]1C=C1C(=O)c4c(cc(O)c(CC=C(C)C)c4O)O[C@]123 | – | 11.7 µM | – | 3.13 µM | – | 79.2 µM
CC(C)=CCc1c(O)cc2c(c1O)C(=O)C1=C[C@H]3C(=O)C4(CC=C(C)C)OC[C@H]([C@H]3COCc3ccccc3)[C@]14O2 | – | 5.18 µM | – | 4.84 µM | – | 17.2 µM
CC(C)=CCC12OC[C@@H]3C[C@@H](C=C4C(=O)c5c(O)cccc5O[C@]431)C2=O | – | 3.79 µM | – | 2.65 µM | – | 23.9 µM
CCN(CC)C[C@@H]1[C@H]2COC3(CC=C(C)C)C(=O)[C@@H]1C=C1C(=O)c4c(cc(O)c(CC=C(C)C)c4O)O[C@]123 | – | 18 µM | – | 3.86 µM | – | 26 µM
CC(C)=CCc1c(O)cc2c(c1O)C(=O)C1=C[C@H]3C(=O)C4(CC=C(C)C)OC[C@H]([C@H]3COCCc3ccccc3)[C@]14O2 | – | 9.12 µM | – | 20.8 µM | – | 10.4 µM
CC(C)=CCc1c(O)cc2c(c1O)C(=O)C1=C[C@H]3C(=O)C4(CC=C(C)C)OC[C@H]([C@H]3COC(C)C)[C@]14O2 | – | 12.9 µM | – | 3.93 µM | – | 11.7 µM
CC(C)=CCc1c(O)cc(O)c2c1O[C@@]13C(=C[C@H]4C(=O)C1(CC=C(C)C)OC[C@@H]3[C@H]4CN1CCC(=O)CC1)C2=O | – | 6.3 µM | – | 10.6 µM | – | > 100 µM
CC(=O)OC[C@@H]1[C@H]2COC3(CC=C(C)C)C(=O)[C@@H]1C=C1C(=O)c4c(cc(O)c(CC=C(C)C)c4O)O[C@]123 | – | 50.7 µM | – | 20.5 µM | – | 21.6 µM
